According to the supplement of paper PMC10307832:

Experiments:
Assay in all cases: relative viability (nuclei count vs DMSO), 5 days (fraction); higher = more cells survive
[1] = compound: CC1=CC=C(C=C1)C(=O)CN2C3=C(CCCC3)SC2=N [Pifithrin_alpha] + C[C@]1(O)C[C@@H](c2nc(-c3ccc4ccc(-c5ccccc5)nc4c3)c3c(N)nccn32)C1 [Linsitinib] (partner 1 µM)
Procedure, shortened: (§1)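 Lung cancer cell lines, seeded in 1536-well plates, were treated the following day by pin tool with a single drug or with five library-drug doses (not always all listed) in √10 steps on top of a fixed anchor-drug dose. Cells were fixed and nuclei stained in one step after 5 days, and nuclei were counted. Relative viability is the nuclei count for treated wells divided by that for vehicle wells, reported as medians of duplicate plates.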

[2] = compound: CC1=CC=C(C=C1)C(=O)CN2C3=C(CCCC3)SC2=N [Pifithrin_alpha] + Nc1ncn([C@H]2C[C@H](O)[C@@H](CO)O2)c(=O)n1 [Decitabine] (partner 2 µM)
Procedure, shortened: as §1

Axitinib + Foretinib = compound: CNC(=O)c1ccccc1Sc1ccc2c(/C=C/c3ccccn3)n[nH]c2c1 [Axitinib] + COc1cc2c(Oc3ccc(NC(=O)C4(C(=O)Nc5ccc(F)cc5)CC4)cc3F)ccnc2cc1OCCCN1CCOCC1 [Foretinib] (partner 0.25 µM)
Procedure, shortened: as §1

Bemcentinib + Foretinib = compound: Nc1nc(Nc2ccc3c(c2)CC[C@@H](N2CCCC2)CC3)nn1-c1cc2c(nn1)-c1ccccc1CCC2 [Bemcentinib] + COc1cc2c(Oc3ccc(NC(=O)C4(C(=O)Nc5ccc(F)cc5)CC4)cc3F)ccnc2cc1OCCCN1CCOCC1 [Foretinib] (partner 0.25 µM)
Procedure, shortened: as §1

For NCI-H650, the relative viability ([1]; first compound 3.162 µM) was 1, the relative viability ([1]; first compound 10 µM) was 0.778 and the relative viability ([1]; first compound 31.62 µM) was 0.524. The relative viability ([1]; first compound 100 µM) was 0.807, the relative viability ([2]; first compound 3.162 µM) was 0.323 and the relative viability ([2]; first compound 10 µM) was 0.335. It also gave a relative viability ([2]; first compound 31.62 µM) of 0.235, a relative viability ([2]; first compound 100 µM) of 0.275 and a relative viability (Axitinib + Foretinib; first compound 0.005 µM) of 1.08. For the same cell line, the relative viability (Axitinib + Foretinib; first compound 0.01581 µM) was 1.12, the relative viability (Axitinib + Foretinib; first compound 0.05 µM) was 0.953 and the relative viability (Axitinib + Foretinib; first compound 0.1581 µM) was 0.984. It also gave a relative viability (Axitinib + Foretinib; first compound 0.5 µM) of 1.07, a relative viability (Bemcentinib + Foretinib; first compound 0.04 µM) of 0.975 and a relative viability (Bemcentinib + Foretinib; first compound 0.1265 µM) of 1.16. For the same cell line, the relative viability (Bemcentinib + Foretinib; first compound 0.4 µM) was 1.04, the relative viability (Bemcentinib + Foretinib; first compound 1.265 µM) was 1.02 and the relative viability (Bemcentinib + Foretinib; first compound 4 µM) was 1.05.
